Reference: the NIST ThermoML archive (doi:10.1016/j.fluid.2006.10.004)
± gives the expanded uncertainty stated by the source.

How the values were obtained:
[1] = 293.15 K; 101.33 kPa; Liquid
[2] = refractive index (Na D-line) (dimensionless); settings: 293.15 K; 101.33 kPa; Liquid; Standard Abbe refractometry

Compound | mass density [1] [kg/m3] | refractive index [2]
CC(C)CC(=O)CC(C)C [2,6-dimethyl-4-heptanone] | 804.8 ± 1.3 | 1.4155 ± 0.0008
CC(=O)CCC(C)C [5-methyl-2-hexanone] | 887.5 ± 1 | 1.4074 ± 0.0008
CCC(=O)CCC(C)C [6-methyl-3-heptanone] | 822.7 ± 1.2 | 1.4194 ± 0.0008
CCC(=O)O [propanoic acid] | 992.7 ± 0.6 | 1.3811 ± 0.0008
